# Experimental data reported in ChEMBL document CHEMBL1157539, “Thousands of chemical starting points for antimalarial lead identification” (Nature, 2010).
# Tested on: Plasmodium falciparum
# Experiment: GSK_TCMDC: Inhibition of Plasmodium falciparum 3D7 in whole erythrocytes, using parasite LDH activity as an index of growth.
# Type: functional, organism-based
# Settings: Plasmodium falciparum, 3D7
row,SMILES,XC50 [nM]
1,CCOc1cc(/C=N/Nc2nc3ccccc3[nH]2)ccc1OCc1ccc([N+](=O)[O-])cc1,995
2,CCOc1c(CNCCCNc2cc(O)c3ccccc3n2)cc(I)cc1OC,1170
3,CCN(CC)CCN(Cc1ccc(-c2ccc(C(F)(F)F)cc2)cc1)C(=O)Cn1c(SCc2ccc(F)cc2)cc(=O)c2ccccc21,752
4,CCN(CC)CCN(Cc1ccc(-c2ccc(C(F)(F)F)cc2)cc1)C(=O)Cn1c(CCc2ccc(F)cc2)nc(=O)c2sccc21,670
5,COc1ccc(CN(C)CCCc2ccc(NC(=O)c3cccc4c(O)c5ccccc5nc34)cc2)cc1OC,1370
6,O=C(/C=C/c1cccc(C(F)(F)F)c1)NCCCCCN1CCC(c2c[nH]c3ccccc23)CC1,836
7,CCCN(CC1CC1)c1ncc(-c2ccccc2CNCc2ccccc2O)cn1,496
8,CN1CCc2cc(NS(=O)(=O)c3ccc(-c4ccc(Cl)s4)cc3)c(N3CCCCC3)cc2CC1,727
9,CC(C)CCNc1nc(NCCc2ccccc2)c2cc(O)ccc2n1,238
10,Cc1ccc(Cn2cnc(N3CC(C)NC(C)C3)cc2=O)cc1NC(=O)Nc1ccc(-c2ccccc2)cc1 (configuration not stated),851
11,Cc1nc(C)c(-c2ccc(C(=O)c3ccccc3)cc2)c(O)c1Br,778
12,CC(C)(C)C(=O)Nc1ccccc1Oc1ccc(Cl)cc1,7.48
13,CCn1c(-c2nonc2N)nc2c(-c3cccc(NC(=O)Nc4ccc(C(F)(F)F)cc4)c3)ncc(OCCCN)c21,1050
14,Cc1ccc(CN2CCC(Oc3cccc(NC(=O)c4ccc(C(F)(F)F)cc4)c3)CC2)cc1,1020
15,CC(C)Sc1nc2c(c(=O)n1Cc1ccco1)C1(CCCCC1)Cc1ccccc1-2,251
16,COc1ccc(Cn2c(N3CCN(S(=O)(=O)c4ccc(OC)cc4)CC3)nc3c2c(=O)n(CC2CC2)c(=O)n3CC2CC2)cc1,892
17,CCc1c(CCNCCc2cccc(CCNCCc3ccc(OC)c(OC)c3CC)c2)ccc(OC)c1OC,361
18,COc1cc2c(cc1C(F)(F)F)N(C(=O)Nc1cccc(-c3ccc(CN(C)C)cc3)c1)CC2,710
19,NC(=O)c1cccc(C(=O)Nc2cccc(-c3ccc(-c4nc5ccccc5[nH]4)s3)c2)c1,349
20,CN(C)Cc1cccc(CNC(=O)c2sccc2OCc2ccc(Cl)cc2)c1,835
21,CC(C)Oc1ccc2ccccc2c1CNCCCCCCNCc1c(OC(C)C)ccc2ccccc12,612
22,Nc1c2c(nc3ccc(C(=O)Nc4ccc(Br)cc4)cc13)CCCC2,149
23,COc1ccc2ccccc2c1CCCCN1CCN(CC(c2ccc(F)cc2)N2CCC2)CC1 (configuration not stated),759
24,Cc1[nH]c(C)c(-c2ccc(CCc3ccc(N)cc3)cc2)c(=O)c1Cl,98.5
25,N#Cc1ccc(CN2CCC(Oc3ccc(NC(=O)c4ccccc4)cc3Cl)CC2)cc1,1260

row,SMILES,XC50 [nM]
1,CN1CCN(c2ccc(-c3nc4ccc(OCc5cc(Cl)cc(Cl)c5)c(C(N)=O)c4[nH]3)cc2)CC1,657
2,COc1ccc(CNCc2ccc(-c3ccc(-c4nc5cc(C(F)(F)F)ccc5[nH]4)cc3)cc2)cc1,135
3,O=C(Nc1ccc(F)cc1)c1ccc(C(=O)NC2CCN(CC3CCCCC3)CC2)cc1,544
4,COc1cccc(NC(=O)c2cc(Br)cc(N3CCN(c4ccncc4)CC3)c2)c1,772
5,O=C(/C=C/c1ccc(Cl)c(Cl)c1)NCCCCCN1CCCC(C(=O)Nc2ccc(Cl)c(Cl)c2)C1 (configuration not stated),785
6,Cc1cccc(-n2c(Nc3ccc(C)c(Cl)c3)nc3ccc(S(=O)(=O)NC(C)C(C)C)cc32)c1 (configuration not stated),648
7,COc1ccc(CNc2nc(NCc3ccc(C(F)(F)F)cc3)c3cc(OC)c(OC)cc3n2)cc1OC,210
8,CCNc1cc(C)nc(Nc2ccc(NC(=O)c3ccccc3Cl)cc2)n1,1010
9,CNCC(O)c1cc(Cl)c(Cl)cc1C (configuration not stated),922
10,c1ccc(Oc2ccc(Nc3ccnc4cc(-c5csc(CNCCN6CCOCC6)n5)ccc34)cc2)cc1,708
11,O=C(NCCNc1nc(NCCNC(=O)Nc2ccccc2)c2ccc(=O)n(-c3c(F)cccc3F)c2n1)Nc1ccccc1,170
12,Cc1cccc(C(=O)Nc2ccnc(N3CCC(N(C)Cc4ccc(C#N)cc4)CC3)c2)c1,912
13,FC(F)(F)c1ccc(N2CCCN(Cc3cccc(-c4ccccc4CNCc4ccc5c(c4)OCO5)c3)CC2)nc1,1190
14,Cc1ccccc1CCNC(=O)c1ccc(N2CCN(c3ccncc3)CC2)nc1,1390
15,Cc1cccc(Nc2c(-c3cc(Br)ccc3O)nc3ncccn23)c1,206
16,COc1ccc(C2CC(=O)C3=C(C2)NC(C)=C(C(=O)OC(C)C)C3c2cccc(O)c2)cc1OC (configuration not stated),785
17,Oc1cccc(Nc2ccnc3cc(-c4ccccn4)ccc23)c1,744
18,N=C(N)c1ccc2[nH]c(SCc3ccccc3)nc2c1,687
19,Fc1ccccc1C=NN=c1cc[nH]c2ccccc12,894
20,CC[C@H]1CN2CC[C@@H]1C[C@H]2[C@H](O)c1cc(N2CCC(N3CCCCC3)CC2)nc2ccc(OC)cc12,267
21,CN(C)CCOc1cc(NC(=O)c2ccc(-c3ccc(Cl)cc3Cl)cc2)ccc1-c1ccccc1,906
22,Cc1noc(C)c1-c1cccc(CNCc2cccc(-c3csc(-c4nc5ccccc5[nH]4)c3)c2)c1,263
23,CS(=O)(=O)Cc1ccc(Nc2nccc(-c3c(-c4cccc(C(=O)Nc5c(F)cccc5F)c4)nn4ccccc34)n2)cc1,532
24,O=C(Nc1ccc(Cn2ncc(N3CCCNCC3)c(Cl)c2=O)cc1)Nc1ccc(OCc2ccccc2)cc1,822
25,CN(C)c1ccc(-c2ccc(C(=O)NC3CCN(Cc4cccc(C(F)(F)F)c4)CC3)s2)cc1,985

row,SMILES,XC50 [nM]
1,CCc1cc(OC)c(C(=O)NC2CCN(C[C@H](O)c3ccnc4ccc(OC)cc34)CC2)cc1Br,815
2,Oc1ccc2nc(NCCCc3ccccc3)nc(NCCc3ccccc3)c2c1,289
3,CC(C)COc1ccc(Cl)cc1Cc1nc(-c2nc3ccc(CN4CCCCC4)cc3[nH]2)co1,738
4,CC(=O)Nc1ccc(C(=O)Nc2cccc(-c3cccc(-c4nc5ccccc5[nH]4)c3)c2)cn1,204
5,COCCNCc1ccc(-c2ccc(CN(C(=O)Nc3ccccc3)C3CCN(Cc4ccccc4)CC3)cc2)cc1,746
6,Cc1ccccc1C1CCN(C2CCC(NC(=O)C3=Cc4ccccc4OC3)CC2)CC1 (configuration not stated),935
7,CN1CCN(c2ccc(-c3cc(-c4cc(F)c(F)c(F)c4)cnc3N)cc2)CC1,1010
8,COc1ccc(NC(=O)/C=C/c2ccccc2Cl)cc1OCCN1CCC(O)(c2ccc(Cl)c(C(F)(F)F)c2)CC1,637
9,COc1cccc(-c2nn(C)c3sc(C(=O)Nc4cccnc4)cc23)c1,948
10,Cc1ccc2[nH]c(C)cc(=NN=Cc3ccc(Cl)cc3)c2c1,992
11,CN1CCN(c2ccc(Nc3ncc(Cl)c(Nc4cccnc4C(N)=O)n3)cc2)CC1,153
12,OC1CCCN(Cc2ccc(-c3ccc(-c4nc5cc(F)ccc5[nH]4)cc3)cc2)C1 (configuration not stated),854
13,Cc1[nH]c2ccccc2c1C(=O)C(C)Sc1nnc(-c2ccccc2F)o1 (configuration not stated),691
14,Cc1ccc(O)cc1Nc1c(C(N)=O)cnc2ccc(-c3cncs3)cc12,670
15,COc1cc2nc(N3CCC(CNC(=O)c4cc(Br)c(Br)s4)CC3)nc(N)c2cc1OC,707
16,CCOc1cc2ncnc(Nc3ccc(OCc4ccccc4OC)c(OC)c3)c2cc1OCC,879
17,CC(ON1C(N)=NC(N)=NC1(C)C)c1ccccc1 (configuration not stated),10.9
18,O=C(NCCN1CCC(c2ncc(-c3ccccc3)o2)CC1)c1ccc(NC(=O)c2ccc(Cl)cc2)cc1,244
19,COc1ccc(CNC2Cc3ccccc3C2)cc1-c1ccc(OC)c(S(=O)(=O)NCCN2CCCC2)c1,773
20,Cc1cc(N)nc2ccc(-c3ccc(CCN)cc3)cc12,621
21,c1cc2[nH]c(CCCCCc3nc4cc(C5=N[C@@H]6CCCC[C@@H]6N5)ccc4[nH]3)nc2cc1C1=N[C@@H]2CCCC[C@@H]2N1,199
22,COC(=O)c1cc2cccc(NC[C@@H](C)NC[C@H](O)c3cccc(Cl)c3)c2[nH]1,631
23,C=CCn1c(C)cc(C(=O)COc2ccc(S(=O)(=O)N3CCOCC3)cc2[N+](=O)[O-])c1C,1110
24,CC(C)Cc1c(O)nc(SCCN2CCOCC2)[nH]c1=O,1260
25,CCN(CC)CCCC(C)Nc1c2cc(OC)ccc2nc2cc(Cl)c([N+](=O)[O-])cc12 (configuration not stated),787

row,SMILES,XC50 [nM]
1,Cc1ccc(F)cc1-c1cc(N2CCCN(C(=O)c3ccc(Br)o3)CC2)ncn1,1430
2,Cc1ccc(NS(=O)(=O)c2ccc(-c3ccccc3)cc2)c(Cn2cnc(N3CCCNCC3)cc2=O)c1,859
3,CCn1ccc2c3c(N)nc(N)nc3ccc21,313
4,COc1cc(C=CC(=O)N2CCC(CCN3CCC(c4c[nH]c5ccccc45)CC3)CC2)cc(OC)c1,909
5,Cn1c(NC(=O)C2CCCN(C(=O)c3ccc(O)c(-c4ccc(Cl)c(Cl)c4)c3)C2)nc2ccccc21 (configuration not stated),751
6,Cc1ccc2c(C3=CCN(CCCCC4(C)C(=O)Nc5ccccc54)CC3)c(C)[nH]c2c1 (configuration not stated),374
7,CC(C)CNc1nc(N)nc2ccc3c(ccn3CC(C)C)c12,649
8,Cc1[nH]c2ccccc2c(=O)c1Br,843
9,O=c1cc(NCCCNCc2cc(Cl)cc(Cl)c2OCc2ccccc2)[nH]c2ccccc12,1030
10,O=C(Nc1ccc(F)cc1)NC1CCN(c2ccnc3ccccc23)C1 (configuration not stated),873
11,COc1ccc(CNCc2ccc(-c3ccc(-c4nc5ccccc5[nH]4)cc3)cc2)cc1,241
12,COc1ccc(C23Oc4cc(OC)cc(OC)c4C2(O)C2(CC3c3ccccc3)SCCCS2)cc1 (configuration not stated),124
13,CCCCCn1c(Sc2ccc(C#N)c([N+](=O)[O-])c2)nnc1-c1cccs1,777
14,CN1CCCN(Cc2cccc(-c3ccc(NC(=O)c4ccc(Cl)cc4)cc3)c2)CC1,720
15,COc1cccc(C(NC(=O)c2ccccc2)c2ccc3cccnc3c2O)c1 (configuration not stated),1080
16,CC(C)C(C(=O)n1cc2c(ccc3nc(N)nc(N)c32)n1)C(C)C,790
17,Cc1ccc(C(O)CNc2ccnc(Nc3cccc(-c4csc(C)n4)c3)n2)cc1 (configuration not stated),826
18,O=c1cc(NCC2(CNCc3cn(Cc4ccccc4)c4ccccc34)CCCCC2)[nH]c2ccccc12,684
19,COc1ccccc1NC(=O)Nc1cccc(-c2cccc(-c3nc4cccc(C)c4[nH]3)c2)c1,95.7
20,COc1ccc2nccc([C@@H](O)CN3CCC(NCCOc4c(C)cccc4F)CC3)c2c1,347
21,CC1Cc2ccccc2N1S(=O)(=O)c1cccc(C(=O)Nc2nc(-c3ccccn3)cs2)c1 (configuration not stated),1320
22,O=C(N[C@H]1CCN(Cc2ccc(OCCCN3CCCCC3)cc2)C1)c1ccc(Cl)c(Cl)c1,781
